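Test compounds were applied to cells in 96-well plates for 48 hours at 5 doses. TGI: total growth inhibition.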
Columns and labels:
Test in all cases: NCI anticancer screen, dose series, 48 h
MOLT-4 leukemia = test system: MOLT-4 leukemia
PC-3 prostate = test system: PC-3 prostate
OVCAR-8 ovarian = test system: OVCAR-8 ovarian
COLO 205 colon = test system: COLO 205 colon
786-0 renal = test system: 786-0 renal
U251 CNS = test system: U251 CNS
SK-OV-3 ovarian = test system: SK-OV-3 ovarian
SK-MEL-5 melanoma = test system: SK-MEL-5 melanoma
EKVX NSCLC = test system: EKVX NSCLC
SNB-19 CNS = test system: SNB-19 CNS
HT29 colon = test system: HT29 colon
RPMI-8226 leukemia = test system: RPMI-8226 leukemia
HL-60(TB) leukemia = test system: HL-60(TB) leukemia
HOP-62 NSCLC = test system: HOP-62 NSCLC
OVCAR-3 ovarian = test system: OVCAR-3 ovarian
SW-620 colon = test system: SW-620 colon
HCT-116 colon = test system: HCT-116 colon
KM12 colon = test system: KM12 colon
SK-MEL-2 melanoma = test system: SK-MEL-2 melanoma
BT-549 breast = test system: BT-549 breast
NCI-H226 lung = test system: NCI-H226 lung
M14 melanoma = test system: M14 melanoma
RXF 393 renal = test system: RXF 393 renal
DU-145 prostate = test system: DU-145 prostate
NCI-H460 lung = test system: NCI-H460 lung
K-562 leukemia = test system: K-562 leukemia
TK-10 renal = test system: TK-10 renal
HOP-92 NSCLC = test system: HOP-92 NSCLC
SF-295 CNS = test system: SF-295 CNS
OVCAR-5 ovarian = test system: OVCAR-5 ovarian
UACC-62 melanoma = test system: UACC-62 melanoma
SF-268 CNS = test system: SF-268 CNS
MDA-MB-231 breast = test system: MDA-MB-231 breast
IGROV1 ovarian = test system: IGROV1 ovarian
NCI/ADR-RES ovarian = test system: NCI/ADR-RES ovarian
HCC-2998 colon = test system: HCC-2998 colon
UACC-257 melanoma = test system: UACC-257 melanoma
ACHN renal = test system: ACHN renal
SR leukemia = test system: SR leukemia
HS 578T breast = test system: HS 578T breast
A549 NSCLC = test system: A549 NSCLC
NCI-H23 lung = test system: NCI-H23 lung
CAKI-1 renal = test system: CAKI-1 renal
MALME-3M melanoma = test system: MALME-3M melanoma
NCI-H522 lung = test system: NCI-H522 lung
SNB-75 CNS = test system: SNB-75 CNS
OVCAR-4 ovarian = test system: OVCAR-4 ovarian
CCRF-CEM leukemia = test system: CCRF-CEM leukemia
A498 renal = test system: A498 renal
SK-MEL-28 melanoma = test system: SK-MEL-28 melanoma
LOX IMVI melanoma = test system: LOX IMVI melanoma
MDA-MB-435 = test system: MDA-MB-435
HCT-15 colon = test system: HCT-15 colon
T-47D breast = test system: T-47D breast
UO-31 renal = test system: UO-31 renal
SF-539 CNS = test system: SF-539 CNS
SN12C renal = test system: SN12C renal
MCF7 breast = test system: MCF7 breast

C#CCNC(CS)C(=O)O (configuration not stated)
TGI (MOLT-4 leukemia): > 100 µM | TGI (PC-3 prostate): > 100 µM | TGI (OVCAR-8 ovarian): > 100 µM | TGI (COLO 205 colon): > 100 µM | TGI (786-0 renal): > 100 µM | TGI (U251 CNS): > 100 µM | TGI (SK-OV-3 ovarian): > 100 µM | TGI (SK-MEL-5 melanoma): > 100 µM | TGI (EKVX NSCLC): > 100 µM | TGI (SNB-19 CNS): > 100 µM | TGI (HT29 colon): > 100 µM | TGI (RPMI-8226 leukemia): > 100 µM | TGI (HL-60(TB) leukemia): > 100 µM | TGI (HOP-62 NSCLC): > 100 µM | TGI (OVCAR-3 ovarian): > 100 µM | TGI (SW-620 colon): > 100 µM | TGI (HCT-116 colon): > 100 µM | TGI (KM12 colon): > 100 µM | TGI (SK-MEL-2 melanoma): > 100 µM | TGI (BT-549 breast): > 100 µM | TGI (NCI-H226 lung): > 100 µM | TGI (M14 melanoma): > 100 µM | TGI (RXF 393 renal): > 100 µM | TGI (DU-145 prostate): > 100 µM | TGI (NCI-H460 lung): > 100 µM | TGI (K-562 leukemia): > 100 µM | TGI (TK-10 renal): > 100 µM | TGI (HOP-92 NSCLC): > 100 µM | TGI (SF-295 CNS): > 100 µM | TGI (OVCAR-5 ovarian): > 100 µM | TGI (UACC-62 melanoma): > 100 µM | TGI (SF-268 CNS): > 100 µM | TGI (MDA-MB-231 breast): > 100 µM | TGI (IGROV1 ovarian): > 100 µM | TGI (NCI/ADR-RES ovarian): > 100 µM | TGI (HCC-2998 colon): > 100 µM | TGI (UACC-257 melanoma): > 100 µM | TGI (ACHN renal): > 100 µM | TGI (SR leukemia): > 100 µM | TGI (HS 578T breast): > 100 µM | TGI (A549 NSCLC): > 100 µM | TGI (NCI-H23 lung): > 100 µM | TGI (CAKI-1 renal): > 100 µM | TGI (MALME-3M melanoma): > 100 µM | TGI (NCI-H522 lung): > 100 µM | TGI (SNB-75 CNS): > 100 µM | TGI (OVCAR-4 ovarian): > 100 µM | TGI (CCRF-CEM leukemia): > 100 µM | TGI (A498 renal): > 100 µM | TGI (SK-MEL-28 melanoma): > 100 µM | TGI (LOX IMVI melanoma): > 100 µM | TGI (MDA-MB-435): > 100 µM | TGI (HCT-15 colon): > 100 µM | TGI (T-47D breast): > 100 µM | TGI (UO-31 renal): > 100 µM

C[C@@H]1CC[C@]2(C(=O)O)CC[C@]3(C)C(=CC[C@@H]4[C@@]5(C)CC[C@H](O)C(C)(C)[C@@H]5CC[C@]43C)[C@@H]2[C@]1(C)O
TGI (MOLT-4 leukemia): 18.3 µM | TGI (OVCAR-8 ovarian): 37.3 µM | TGI (COLO 205 colon): 30 µM | TGI (786-0 renal): 18.7 µM | TGI (U251 CNS): 27.3 µM | TGI (SK-OV-3 ovarian): 31.8 µM | TGI (EKVX NSCLC): 33 µM | TGI (SNB-19 CNS): 29.7 µM | TGI (SF-539 CNS): 12 µM | TGI (RPMI-8226 leukemia): 33.9 µM | TGI (HL-60(TB) leukemia): 19.8 µM | TGI (SN12C renal): 30.1 µM | TGI (OVCAR-3 ovarian): 32.6 µM | TGI (SW-620 colon): 42.1 µM | TGI (HCT-116 colon): 24.6 µM | TGI (KM12 colon): 26.7 µM | TGI (SK-MEL-2 melanoma): 31.8 µM | TGI (BT-549 breast): 28.2 µM | TGI (M14 melanoma): 8.1 µM | TGI (DU-145 prostate): 21.1 µM | TGI (NCI-H460 lung): 17.3 µM | TGI (K-562 leukemia): 19.6 µM | TGI (TK-10 renal): 27.5 µM | TGI (HOP-92 NSCLC): 20.7 µM | TGI (SF-295 CNS): 10.6 µM | TGI (OVCAR-5 ovarian): 31.5 µM | TGI (UACC-62 melanoma): 10.1 µM | TGI (SF-268 CNS): 34.2 µM | TGI (MDA-MB-231 breast): 22.6 µM | TGI (IGROV1 ovarian): 30.7 µM | TGI (NCI/ADR-RES ovarian): 32.6 µM | TGI (HCC-2998 colon): 29.2 µM | TGI (UACC-257 melanoma): 19.8 µM | TGI (ACHN renal): 30.4 µM | TGI (MCF7 breast): 35.7 µM | TGI (SR leukemia): 30 µM | TGI (HS 578T breast): 16.1 µM | TGI (A549 NSCLC): 33.3 µM | TGI (NCI-H23 lung): 35.9 µM | TGI (CAKI-1 renal): 27.3 µM | TGI (MALME-3M melanoma): 25.7 µM | TGI (NCI-H522 lung): 27.9 µM | TGI (SNB-75 CNS): 28.1 µM | TGI (OVCAR-4 ovarian): 30.5 µM | TGI (CCRF-CEM leukemia): 23.2 µM | TGI (A498 renal): 33.3 µM | TGI (SK-MEL-28 melanoma): 26.9 µM | TGI (LOX IMVI melanoma): 29.5 µM | TGI (MDA-MB-435): 28.8 µM | TGI (HCT-15 colon): 24.2 µM | TGI (T-47D breast): 32.9 µM | TGI (UO-31 renal): 23.5 µM

Source: PubChem BioAssay (NCI)
